From PubChem BioAssay AID1963869 (Molecular Pharmacology Branch, DTP, NCI, 2024)
Where “and” joins values, the source holds several entries; their conditions need not be identical. Identical values can stand only once.

System: KRAS patient-derived spheroids with HUVEC/MSC, viability
Assay: Anticancer human tumor 323965-272-R-J2-PDC patient-derived pancreatic carcinoma cell line growth inhibition [KRAS2]
Conditions: for viability, T/C: stronger effect = lower value
How it was run: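 Combination screen of spheroid viability in tumor-cell co-cultures with endothelial (HUVEC) and mesenchymal stem cell stroma. Each agent was tested in half-log dilutions, topping at clinical Cmax or at 10 microM without a known Cmax.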

[1] = curve of first compound, second compound 0.1 µM
[2] = curve of first compound, second compound 0.316 µM
[3] = curve of first compound, second compound 1 µM
[4] = curve of first compound, second compound 3.16 µM
[5] = curve of first compound, second compound 10 µM
[6] = second compound 0.1 µM, first compound 0.000316 µM
[7] = second compound 0.1 µM, first compound 0.001 µM
[8] = second compound 0.1 µM, first compound 0.00316 µM
[9] = second compound 0.1 µM, first compound 0.01 µM
[10] = second compound 0.1 µM, first compound 0.0316 µM
[11] = second compound 0.1 µM, first compound 0.1 µM
[12] = second compound 0.316 µM, first compound 0.000316 µM
[13] = second compound 0.316 µM, first compound 0.001 µM
[14] = second compound 0.316 µM, first compound 0.00316 µM
[15] = second compound 0.316 µM, first compound 0.01 µM
[16] = second compound 0.316 µM, first compound 0.0316 µM
[17] = second compound 0.316 µM, first compound 0.1 µM
[18] = second compound 1 µM, first compound 0.000316 µM
[19] = second compound 1 µM, first compound 0.001 µM
[20] = second compound 1 µM, first compound 0.00316 µM
[21] = second compound 1 µM, first compound 0.01 µM
[22] = second compound 1 µM, first compound 0.0316 µM
[23] = second compound 1 µM, first compound 0.1 µM
[24] = second compound 3.16 µM, first compound 0.000316 µM
[25] = second compound 3.16 µM, first compound 0.001 µM
[26] = second compound 3.16 µM, first compound 0.00316 µM
[27] = second compound 3.16 µM, first compound 0.01 µM
[28] = second compound 3.16 µM, first compound 0.0316 µM
[29] = second compound 3.16 µM, first compound 0.1 µM
[30] = second compound 10 µM, first compound 0.000316 µM
[31] = second compound 10 µM, first compound 0.001 µM
[32] = second compound 10 µM, first compound 0.00316 µM
[33] = second compound 10 µM, first compound 0.01 µM
[34] = second compound 10 µM, first compound 0.0316 µM
[35] = second compound 10 µM, first compound 0.1 µM
[36] = second compound 0.1 µM, first compound 0.316 µM
[37] = second compound 0.1 µM, first compound 1 µM
[38] = second compound 0.1 µM, first compound 3.16 µM
[39] = second compound 0.1 µM, first compound 10 µM
[40] = second compound 0.316 µM, first compound 0.316 µM
[41] = second compound 0.316 µM, first compound 1 µM
[42] = second compound 0.316 µM, first compound 3.16 µM
[43] = second compound 0.316 µM, first compound 10 µM
[44] = second compound 1 µM, first compound 0.316 µM
[45] = second compound 1 µM, first compound 1 µM
[46] = second compound 1 µM, first compound 3.16 µM
[47] = second compound 1 µM, first compound 10 µM
[48] = second compound 3.16 µM, first compound 0.316 µM
[49] = second compound 3.16 µM, first compound 1 µM
[50] = second compound 3.16 µM, first compound 3.16 µM
[51] = second compound 3.16 µM, first compound 10 µM
[52] = curve of first compound, second compound 0.0316 µM
[53] = second compound 0.0316 µM, first compound 0.0316 µM
[54] = second compound 0.0316 µM, first compound 0.1 µM
[55] = second compound 0.0316 µM, first compound 0.316 µM
[56] = second compound 0.0316 µM, first compound 1 µM
[57] = second compound 0.0316 µM, first compound 3.16 µM
[58] = second compound 0.0316 µM, first compound 10 µM
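Also: spheroids exposed to agents for 7 days.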
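For viability, T/C in this document: 100% = DMSO vehicle control viability.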

CC(C)n1nc(-c2ccc3oc(N)nc3c2)c2c(N)ncnc21 + CNCc1ccccc1-c1csc(C(C)Nc2nc(C)nc3cc(OC)c(OC)cc23)c1
IC50 [1]: 2.12 nM | IC50 [2]: 2 nM | IC50 [3]: 2.72 nM | IC50 [4]: 2.45 nM | IC50 [5]: < 0.316 nM | viability, T/C [6]: 84.4% | viability, T/C [7]: 58.7% | viability, T/C [8]: 47.6% | viability, T/C [9]: 30.1% | viability, T/C [10]: 22.7% | viability, T/C [11]: 17.9% | viability, T/C [12]: 78.2% | viability, T/C [13]: 60.8% | viability, T/C [14]: 43.1% | viability, T/C [15]: 28.2% | viability, T/C [16]: 19.3% | viability, T/C [17]: 16.8% | viability, T/C [18]: 80.6% | viability, T/C [19]: 71.5% | viability, T/C [20]: 44.6% | viability, T/C [21]: 29.8% | viability, T/C [22]: 19.1% | viability, T/C [23]: 15.6% | viability, T/C [24]: 89% | viability, T/C [25]: 76% | viability, T/C [26]: 42.9% | viability, T/C [27]: 16% | viability, T/C [28]: 9.29% | viability, T/C [29]: 9.2% | viability, T/C [30]: 0.23% | viability, T/C [31]: 0.23% | viability, T/C [32]: 0.19% | viability, T/C [33]: 0.16% | viability, T/C [34]: 0.12% | viability, T/C [35]: 0.35%

CC(C)n1nc(-c2ccc3oc(N)nc3c2)c2c(N)ncnc21 + C=CC(=O)N1CCN(c2nc(=O)n(-c3c(C)ccnc3C(C)C)c3nc(-c4c(O)cccc4F)c(F)cc23)C(C)C1
IC50 [1]: 0.446 nM | IC50 [2]: 0.394 nM | IC50 [3]: 0.514 nM | IC50 [4]: 0.381 nM | IC50 [5]: < 0.316 nM | viability, T/C [6]: 53.7% | viability, T/C [7]: 41.4% | viability, T/C [8]: 28.3% | viability, T/C [9]: 19.1% | viability, T/C [10]: 15.9% | viability, T/C [11]: 12.3% | viability, T/C [12]: 53.2% | viability, T/C [13]: 37.8% | viability, T/C [14]: 30.5% | viability, T/C [15]: 22.1% | viability, T/C [16]: 14.8% | viability, T/C [17]: 12.5% | viability, T/C [18]: 56.9% | viability, T/C [19]: 41.1% | viability, T/C [20]: 28.6% | viability, T/C [21]: 19.3% | viability, T/C [22]: 15.6% | viability, T/C [23]: 13.3% | viability, T/C [24]: 51.6% | viability, T/C [25]: 41.9% | viability, T/C [26]: 29% | viability, T/C [27]: 17.5% | viability, T/C [28]: 13.7% | viability, T/C [29]: 12.3% | viability, T/C [30]: 48.8% | viability, T/C [31]: 36.3% | viability, T/C [32]: 24.1% | viability, T/C [33]: 19.4% | viability, T/C [34]: 12.4% | viability, T/C [35]: 12.7%

CC1OCC2(CCN(c3cnc(Sc4ccnc(N)c4Cl)c(N)n3)CC2)C1N (configuration not stated) + COc1cc2nc(C)nc(NC(C)c3cc(N)cc(C(F)(F)F)c3)c2cc1OC1CCOC1
IC50 [1]: 118 nM | IC50 [2]: 54.9 nM | IC50 [3]: < 31.6 nM | IC50 [4]: < 31.6 nM | IC50 [5]: < 31.6 nM | viability, T/C [10]: 66.7% | viability, T/C [11]: 49.4% | viability, T/C [36]: 41.4% | viability, T/C [37]: 33% | viability, T/C [38]: 24.1% | viability, T/C [39]: 21.1% | viability, T/C [16]: 52.5% | viability, T/C [17]: 47.9% | viability, T/C [40]: 40.2% | viability, T/C [41]: 27.5% | viability, T/C [42]: 26.1% | viability, T/C [43]: 19.1% | viability, T/C [22]: 43.5% | viability, T/C [23]: 34.6% | viability, T/C [44]: 31.1% | viability, T/C [45]: 24.7% | viability, T/C [46]: 19.4% | viability, T/C [47]: 20.6% | viability, T/C [28]: 46.6% | viability, T/C [29]: 33.7% | viability, T/C [48]: 29.6% | viability, T/C [49]: 17.7% | viability, T/C [50]: 13.8% | viability, T/C [51]: 16.9% | viability, T/C [34]: 49.2% | viability, T/C [35]: 35.6% | viability, T/C (second compound 10 µM, first compound 0.316 µM): 17.5% | viability, T/C (second compound 10 µM, first compound 1 µM): 12.9% | viability, T/C (second compound 10 µM, first compound 3.16 µM): 11.5% | viability, T/C (second compound 10 µM, first compound 10 µM): 11.4%

COc1cc(Nc2ncc3c(n2)-c2ccc(Cl)cc2C(c2c(F)cccc2OC)=NC3)ccc1C(=O)O + C=CC(=O)N1CCN(c2nc(OCC3CCCN3C)nc3c2CCN(c2cccc4cccc(C)c24)C3)CC1CC#N
IC50 [52]: < 31.6 nM | IC50 [1]: 49.4 nM | IC50 [2]: < 31.6 nM | IC50 [3]: < 31.6 nM | IC50 [4]: < 31.6 nM | viability, T/C [53]: 60.1% | viability, T/C [54]: 43.8% | viability, T/C [55]: 31.4% | viability, T/C [56]: 36.3% | viability, T/C [57]: 46% | viability, T/C [58]: 56.2% | viability, T/C [10]: 58.1% | viability, T/C [11]: 35.9% | viability, T/C [36]: 29.7% | viability, T/C [37]: 30.7% | viability, T/C [38]: 39.4% | viability, T/C [39]: 48.8% | viability, T/C [16]: 48.5% | viability, T/C [17]: 33.3% | viability, T/C [40]: 26.6% | viability, T/C [41]: 27.8% | viability, T/C [42]: 35.8% | viability, T/C [43]: 43.5% | viability, T/C [22]: 55.3% | viability, T/C [23]: 32.6% | viability, T/C [44]: 20.4% | viability, T/C [45]: 30.5% | viability, T/C [46]: 38.6% | viability, T/C [47]: 46.6% | viability, T/C [28]: 21.1% | viability, T/C [29]: 13.2% | viability, T/C [48]: 10.3% | viability, T/C [49]: 19% | viability, T/C [50]: 20.5% | viability, T/C [51]: 15.5%

COc1cc(Nc2ncc3c(n2)-c2ccc(Cl)cc2C(c2c(F)cccc2OC)=NC3)ccc1C(=O)O
viability, T/C (compound 0.0316 µM): 91.7% [middle of 5 runs] | viability, T/C (compound 0.1 µM): 72.2% [middle of 5 runs] | viability, T/C (compound 0.316 µM): 45.2% [middle of 5 runs] | viability, T/C (compound 1 µM): 51.5% [middle of 5 runs] | viability, T/C (compound 3.16 µM): 65.7% [middle of 5 runs] | viability, T/C (compound 10 µM): 69% [middle of 5 runs] | IC50 (curve of compound): 10000 nM and > 10000 nM

CC(C)NCC(C(=O)N1CCN(c2ncnc3c2C(C)CC3O)CC1)c1ccc(Cl)cc1 (configuration not stated) + C=CC(=O)N1CCN(c2nc(OCC3CCCN3C)nc3c2CCN(c2cccc4cccc(C)c24)C3)CC1CC#N
IC50 [52]: 489 nM | IC50 [1]: 251 nM | IC50 [2]: 132 nM | IC50 [3]: 118 nM | IC50 [4]: < 31.6 nM | viability, T/C [53]: 64.4% | viability, T/C [54]: 62.4% | viability, T/C [55]: 54.3% | viability, T/C [56]: 42.2% | viability, T/C [57]: 35.7% | viability, T/C [58]: 29.8% | viability, T/C [10]: 64.5% | viability, T/C [11]: 54.9% | viability, T/C [36]: 50.2% | viability, T/C [37]: 39.2% | viability, T/C [38]: 30.8% | viability, T/C [39]: 29.1% | viability, T/C [16]: 58.8% | viability, T/C [17]: 50.6% | viability, T/C [40]: 44.1% | viability, T/C [41]: 31.8% | viability, T/C [42]: 26.2% | viability, T/C [43]: 26.3% | viability, T/C [22]: 57.7% | viability, T/C [23]: 53.6% | viability, T/C [44]: 38.6% | viability, T/C [45]: 33.4% | viability, T/C [46]: 26.4% | viability, T/C [47]: 23.1% | viability, T/C [28]: 10.2% | viability, T/C [29]: 6.16% | viability, T/C [48]: 5.23% | viability, T/C [49]: 4.82% | viability, T/C [50]: 3.02% | viability, T/C [51]: 1.82%
